Tests used:
recombinant human GSK3β = target: T1, recombinant human GSK3β (Homo sapiens, UniProt P49841); assay: Determination of GSK3β activity in Scintillation Proximity Assay; type: biochemical; settings: Km of ATP 3 μM used to calculate Ki; 1 μmol/L ATP; read-out: mean GSKβ Ki value
T1 construct: purchased Dundee University, UK
Method: Determination of GSK3β activity in Scintillation Proximity Assay.
The inhibition experiments were carried out in duplicate with 10 concentrations of the inhibitor in 384 well clear-bottom microtitre plates. A biotinylated peptide substrate (Biotin-Ala-Ala-Glu-Glu-Leu-Asp-Ser-Arg-Ala-Gly-Ser(PO3H2)-Pro-Gln-Leu (AstraZeneca, Lund)), was added at a final concentration of 1 μmol/L in an assay buffer (pH 7.0) containing 0.6 mU recombinant human GSK3β (Dundee University, UK), (˜5 nmol/L active enzyme), 10 mmol/L morpholinepropanesulfonic acid (MOPS), 0.3 mmol/L EDTA, 0.01% (v/v) (3-mercaptoethanol, 0.003% (w/v) polyethylene 23 lauryl ether (Brij 35), 0.4% glycerol and 0.02 mg bovine serum albumine (BSA) and preincubated for 10 minutes. The reaction was initiated by the addition of 0.06 μCi [γ-33P]ATP (Amersham, UK) and unlabelled ATP in 30 mmol/L Mg(Ac)2 to a final concentration of 1 μmol/L ATP. The final assay volume was 15 μL. Blank controls without peptide substrate were used. After incubation for 15 min at room temperature, the reaction was terminated by the to addition of stop solution containing 1.3 mmol/L EDTA, 13 μmol/L ATP, 0.02% Triton™X-100 and 0.15 mg streptavidin coated SPA beads. After a 5 minutes centrifugation at 2000 rpm, the radioactivity was measured in a liquid scintillation counter (1450 MicroBeta Trilux, Perkin Elmer, Finnland). […]

[1] = target: T2, recombinant Axl tyrosine kinase (Homo sapiens, UniProt P30530); assay: In vitro Axl kinase assay (AlphaScreen); type: biochemical; settings: Ki calculated from IC50, Km for ATP 0.2 μM
T2 construct: GST (N); made in house; host or cells: SF126 insect cells
T2 sequence (P30530 473-894): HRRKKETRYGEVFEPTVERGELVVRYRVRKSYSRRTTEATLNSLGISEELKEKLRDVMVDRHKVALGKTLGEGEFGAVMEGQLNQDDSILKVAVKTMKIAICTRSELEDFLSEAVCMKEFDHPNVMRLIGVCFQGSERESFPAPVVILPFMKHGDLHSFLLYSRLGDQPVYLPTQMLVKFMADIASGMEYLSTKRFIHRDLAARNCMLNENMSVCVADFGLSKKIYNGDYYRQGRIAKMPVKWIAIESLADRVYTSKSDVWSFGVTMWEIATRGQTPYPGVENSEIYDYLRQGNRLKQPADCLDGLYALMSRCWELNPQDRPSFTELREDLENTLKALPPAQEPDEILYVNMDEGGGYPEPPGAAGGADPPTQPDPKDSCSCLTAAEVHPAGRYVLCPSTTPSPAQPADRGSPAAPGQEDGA
Excerpt: Determination of the In Vitro Axl Kinase Assay.
The following assays can be used to measure the effects of the compounds of the present invention as inhibitors of Axl tyrosine kinase enzyme, as inhibitors in vitro of the phosphorylation of Axl expressed on NCI H1299 lung large cell carcinoma cells. The assay used AlphaScreen technology (Gray et al., Analytical Biochemistry, 2003, 313: 234-245) to determine the ability of test compounds to inhibit phosphorylation by recombinant Axl tyrosine kinase.
N-terminal GST-Axl kinase domain encompassing amino acids 473 to 894 of Axl (GenBank Accession No NM_021913) was expressed in […] insect cells and purified using the GST epitope tag, using standard purification techniques.
Test compounds were prepared as 10 mM stock solutions in dimethylsulphoxide (DMSO) and diluted in DMSO as required. […]
Each reaction was stopped by the addition of 5 μl of a mixture of 500 mM EDTA, 3 mg/ml bovine serum albumin (BSA) and 20 mM Tris-HCl pH 7.4 buffer containing 40 ng/μl AlphaScreen Streptavidin donor and anti-p-Tyr-100 acceptor beads (Perkin Elmer, Catalogue No. 6760620M). The resultant signals arising from laser light excitation at 680 nm were read using a Packard Envision instrument. […]

[2] = Hygroscopicity by Dynamic Vapor Sorption (DVS); type: physicochemical; settings: 25° C.
Method: Description of the Dynamic Vapor Sorption (DVS) Method Used
The weight change over time as a function of relative humidity (RH) at 25° C. was measured in a DVS Advantage, equipped with a SMS ultrabalance using DVS Advantage Control Software Version 1.2.0.21, from Surface Measurement Systems, London, UK.
Carrier gas was nitrogen 200 ml/minute. The sample amount was circa 10 mg. The equilibrium criteria, for each step, was set to 0.002%/minute with DMDT Window 5 minutes, DMDT Min Time 10 minutes and DMDT Max Time 360 minutes as defined in the Control Software. DMDT uses the percentage rate of change of mass with time (dm/dt) to determine whether a sample has come to equilibrium.
DMDT Window (min): The time window, over which a straight line is fitted to the mass data in order to calculate a value of dm/dt.
DMDT Min Time (min): The time that the measured dm/dt must satisfy the specified dm/dt criteria before switching to the next Method Stage.
DMDT Max Time (min): The maximum time a Method Stage will run in dm/dt mode before switching to the next Method Stage—regardless of whether the dm/dt criterion has been satisfied.
The sample was initially dried at 0% RH and the water vapor sorption was measured as weight gain after stepwise increase to 10, 20, 30, 40, 50, 60, 70, 80, 90 and 95% relative humidity. After stepwise drying using the same relative humidities in reverse order down to 0% RH a second sorption curve was obtained.

T1 sequence (P49841 whole entry): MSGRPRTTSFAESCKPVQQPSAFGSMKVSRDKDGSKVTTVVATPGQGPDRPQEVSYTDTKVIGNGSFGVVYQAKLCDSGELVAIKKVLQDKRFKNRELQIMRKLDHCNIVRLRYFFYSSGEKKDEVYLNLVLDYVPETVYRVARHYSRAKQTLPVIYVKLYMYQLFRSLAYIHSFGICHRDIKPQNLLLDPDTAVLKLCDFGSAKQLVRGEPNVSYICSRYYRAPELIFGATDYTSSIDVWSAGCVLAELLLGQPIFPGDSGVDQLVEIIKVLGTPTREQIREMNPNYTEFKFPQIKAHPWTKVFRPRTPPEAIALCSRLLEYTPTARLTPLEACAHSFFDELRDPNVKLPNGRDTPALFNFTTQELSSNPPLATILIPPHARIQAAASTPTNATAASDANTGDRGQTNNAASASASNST

CN1CCN(C(=O)c2ccc(-c3cnc(N)c(-c4nc5cnccc5o4)n3)cc2)CC1 [Example 1, (4-(5-Amino-6-(oxazolo[4,5-c]pyridin-2-yl)pyrazin-2-yl)phenyl)(4-methylpiperazin-1-yl)methanone]
Ki (recombinant human GSK3β): 2.3 nM | Ki [1]: 113 nM | Average weight gain ([2]; 0% RH): 0.0% | Weight gain calculated as molar equivalents of water ([2]; 0% RH): 0.0 molar equivalents of water | Weight gain first sorption curve ([2]; 0% RH): 0.00% | Weight gain second sorption curve ([2]; 0% RH): 0.00% | Average weight gain ([2]; 10% RH): 0.1% | Weight gain calculated as molar equivalents of water ([2]; 10% RH): 0.0 molar equivalents of water | Weight gain first sorption curve ([2]; 10% RH): 0.12% | Weight gain second sorption curve ([2]; 10% RH): 0.14% | Average weight gain ([2]; 20% RH): 2.4% | Weight gain calculated as molar equivalents of water ([2]; 20% RH): 0.5 molar equivalents of water | Weight gain first sorption curve ([2]; 20% RH): 2.34% | Weight gain second sorption curve ([2]; 20% RH): 2.41% | Average weight gain ([2]; 30% RH): 3.1% | Weight gain calculated as molar equivalents of water ([2]; 30% RH): 0.7 molar equivalents of water | Weight gain first sorption curve ([2]; 30% RH): 3.09% | Weight gain second sorption curve ([2]; 30% RH): 3.14% | Average weight gain ([2]; 60% RH): 4.7% | Weight gain calculated as molar equivalents of water ([2]; 60% RH): 1.1 molar equivalents of water | Weight gain first sorption curve ([2]; 60% RH): 4.72% | Weight gain second sorption curve ([2]; 60% RH): 4.65% | Average weight gain ([2]; 90% RH): 9.2% | Weight gain calculated as molar equivalents of water ([2]; 90% RH): 2.1 molar equivalents of water | Weight gain first sorption curve ([2]; 90% RH): 9.16% | Weight gain second sorption curve ([2]; 90% RH): 9.19%

Nc1ncc(-c2ccc(C(=O)N3CCNCC3)cc2)nc1-c1nc2cnccc2o1 [Example 14, (4-(5-Amino-6-(oxazolo[4,5-c]pyridin-2-yl)pyrazin-2-yl)phenyl)(piperazin-1-yl)methanone]
Ki (recombinant human GSK3β): 3.2 nM

Reference: patent publication US20110118275A1, “OXAZOLO[4,5-c]PYRIDINE SUBSTITUTED PYRAZINE” (ASTRAZENECA AB, priority 2009, published 2011)
